Experiment [1] concerns the target T1, YugJ (Bacillus spizizenii, UniProt Z9GGM4DFS4).
T1 construct: full-length residues 1-387; N-terminal His6 tag removed with thrombin; E. coli BL21(DE3); homodimer
As to the kind of experiment: X-ray crystal structure. Type of experiment: binding.

In experiment [2] the target is YugJ from Bacillus subtilis (furan aldehyde reductase) (B. subtilis subsp. spizizenii) (UniProt O05239). As to the kind of experiment: SEC; gel filtration on Superdex 200 10/300 in 20 mM Tris, pH 8.0, 150 mM NaCl, 5 mM β-mercaptoethanol; eluted between 44 and 158 kDa standards. On the technique in general: In gel filtration, larger molecules generally elute earlier.
Experiment [3] concerns the target T1, YugJ. As to the kind of experiment: NADPH oxidation at […] nm, HMF reduction. Particulars: 3 mM HMF, 0.2 mM NADPH, Ni2+-bound YugJ, 50 mM HEPES pH 7.4, 150 mM NaCl, 23 °C; presumed competitive. Type of experiment: biochemical.

YugJ from Bacillus subtilis (furan aldehyde reductase), sequence (O05239 whole entry): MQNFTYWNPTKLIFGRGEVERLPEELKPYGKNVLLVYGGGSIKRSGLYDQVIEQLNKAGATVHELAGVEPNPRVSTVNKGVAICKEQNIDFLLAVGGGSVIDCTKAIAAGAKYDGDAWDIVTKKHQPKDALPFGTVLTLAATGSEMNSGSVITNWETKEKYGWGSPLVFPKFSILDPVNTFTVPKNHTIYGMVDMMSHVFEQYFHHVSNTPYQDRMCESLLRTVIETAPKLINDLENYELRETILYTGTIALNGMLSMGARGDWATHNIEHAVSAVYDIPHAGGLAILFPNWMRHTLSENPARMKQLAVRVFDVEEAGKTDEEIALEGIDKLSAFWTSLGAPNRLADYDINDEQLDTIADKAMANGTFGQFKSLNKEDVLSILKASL

Turning to `NC(=O)c1ccc[n+]([C@@H]2O[C@H](COP(=O)(O)OP(=O)(O)OC[C@H]3O[C@@H](n4cnc5c(N)ncnc54)[C@H](OP(=O)(O)O)[C@@H]3O)[C@@H](O)[C@H]2O)c1` [NADP], the X-ray crystal structure result in experiment [1] (1.65 Å with nitrate (7W9Z), 1.93 Å with Ni2+, nicotinamide disordered (7W9Y), interdomain cleft) is “we determined the crystal structures of YugJ in complex with NADP in two crystal forms”.
Take “YugJ from Bacillus subtilis (furan aldehyde reductase) (from UniProt O05239 1-387) (enzyme)”: the stoichiometry N in experiment [2] was 2.
Take `O=[N+]([O-])O` [nitrate]: the X-ray crystal structure entry in experiment [1] (1.65 Å, with NADP, 0.3 M ammonium nitrate in crystallisation, pH 6.5, near nicotinamide ring, putative substrate site) is “nitrate ion forms hydrogen bonds with the nicotinamide-linked ribose moiety of NADP”. In experiment [3], the “% inhibition at 360 mM lithium nitrate” value is listed as ~ 75%.

One may read the stoichiometry N as the number of molecules, sites or subunits per partner or assembly.

For the origin of these results see article PMC8836905, “Structural and Biochemical Analysis of the Furan Aldehyde Reductase YugJ from Bacillus subtilis” (International Journal of Molecular Sciences, 2022).
